Tested on: 24 h food-deprived Wistar rats
Assay: Acute feeding study: cumulative food intake after i.p. or oral administration
Assay type: in vivo
Description: The experiments were performed on male Wistar rats weighing 300-350 g. The animals were housed individually under a 12 h light/dark cycle in a room with temperature and humidity control. The rats had ad libitum access to food and water, except during the feeding studies. Prior to the experiments, animals were acclimated to the handling.
For the acute feeding studies, the nanoemulsion G-F68 or Tween 20 were prepared in 5% in saline.
Regarding the acute studies with OEA, the drug was obtained from Tocris Bioscience (Bristol, UK). It was administered in a solution contained the nanoemulsion G-F68 (5%) and saline (95%) prepared in fresh the same day of the experiment. The doses tested were: • a) 1, 5 and 10 mg/kg of OEA for the intraperitoneal acute studies. The volume of the administration was 1 ml/kg. • b) 1, 10 and 50 mg/kg of OEA for the oral acute studies. The volume of the administration was 3 ml/kg.
The hypophagic actions of the N-acylethanolamine OEA were evaluated using the nanoemulsion G-F68 as delivery system (vehicle). For these experiments, we used animals habituated to the experimental protocols. To this end, 48 h before each experiment, the bedding was removed and replaced by small food containers into the cage for 4 h. After this initial phase, the animals were deprived of food for 24 h, but had free access to water. The different treatments were administered 15 min prior access to food. Animals were then returned to their home cages and a measured amount of food (30-40 g) was placed into the cages (t = 0 h). Food pellets were weighed at time intervals of 15, 30, 60, 120 and 240 min, and 24 h after the acute treatment.

SMILES: CCCCCCCC/C=C\CCCCCCCC(=O)NCCO [OEA, N-oleoylethanolamine]
- food intake (OEA 1 mg/kg oral (i.g., 3 ml/kg) in G-F68, vs G-F68 group, p<0.01 at 240 min): significant decrease in food intake
- food intake (OEA 5 mg/kg i.p. in G-F68 (5% in saline), vs nanoemulsion group, p<0.001 at 15 min, p<0.05 at 30 min): significant reduction on food intake
- food intake (OEA 10 mg/kg i.p. in G-F68 (5% in saline), vs nanoemulsion group, p<0.001 at 15, 30 and 60 min): significant reduction on food intake
- food intake (OEA 10 mg/kg oral (i.g., 3 ml/kg) in G-F68, vs G-F68 group, p<0.05 at 240 min): significant decrease in food intake
- food intake (OEA 50 mg/kg oral (i.g., 3 ml/kg) in G-F68, vs G-F68 group, significant at 15, 30, 60, 120, 240 min and 24 h): significant decrease in food intake
- food intake (OEA 50 mg/kg oral (i.g., 3 ml/kg) prepared in Tween 20, vs vehicle Tween 20 group, p<0.05): significant decrease in food intake only at 30 and 60 min
- feeding (OEA 50 mg/kg oral (i.g., 3 ml/kg) within nanoemulsion G-F68, vs its vehicle group (Figure 7), 15 min to 24 h): prolonged and significant reduction of feeding at all times
- cumulative food intake (OEA i.p., the different doses (1, 5, 10 mg/kg) in G-F68, 24 h after administration, vs vehicle group): no effects on cumulative food intake

Reference: patent EP2985276A1, “FORMULATIONS BASED ON NANOEMULSIONS AND THE USE THEREOF FOR TREATING OBESITY” (Fundación Pública Andaluza Para La Investigación de Malaga …, priority 2013, dated 2014)
